Data as given in patent US6552225B1, “Chemical compounds” (AstraZeneca AB, priority 1999, dated 2003).

Experiments:
PDH = details: cited from earlier work
[1] = cited from earlier work

Row | Structure (SMILES) | melting point [°C] | activity of PDH (PDH; after acute administration in animals) | proportion of PDH in its active form (PDH; single administration, 150 mg/kg, intraperitoneally) | glycaemia ([1]; Stacpoole et al., 1978) | plasma glucose ([1]; after repeated administration)
1 | COc1cc(S(=O)(=O)Nc2ccccc2)c(OC)cc1NC(=O)[C@@](C)(O)C(F)(F)F | 194 to 195 | – | – | – | –
2 | O=C(O)C(Cl)Cl [DCA, dichloroacetic acid] | – | increases the activity of PDH | increased the proportion of PDH in its active form | reducing glycaemia | significant decrease in plasma glucose
